Like-named read-outs stand apart in the source and are kept apart here.
Columns and labels:
MCF-7 cells = assay: In vitro cytotoxic activity, MTT assay, MCF-7; assay type: cell-based, human; conditions: MTT assay, MCF-7 cell line, read-out: IC50 (Mean ± SEM) MCF-7
Experimental: (§1) MCF-7 (human breast cancer) cells, obtained from Sigma-Aldrich Chemie GmbH, Taufkirchen, Germany, were propagated in RPMI-1640 supplemented with 10% heat inactivated FBS, 2 mM L-glutamine, and 1% standard antibiotic solution. Cells were incubated in a 5% CO2 humidified incubator at 37 °C and passaged bi-weekly. The in vitro anti-proliferative activity of the newly synthesized derivatives was assayed using standard MTT technique. Results were expressed as IC50. Experiments were repeated at least in triplicate, to obtain good reproducibility between replicate wells with standard errors below 10%. Furthermore, the cytotoxic effects of the prepared derivatives were evaluated against normal nonmalignant cells, non-tumorigenic MCF-10A, in order to find out if the synthesized derivatives have toxicity against normal cells. Additionally, results were compared with reference compounds (cisplatin and milaplatin) as positive controls.

MCF-10A cells = assay: In vitro cytotoxicity against normal non-tumorigenic cells, MTT assay; assay type: cell-based; conditions: normal non-tumorigenic MCF-10A cells, read-out: IC50 (Mean ± SEM) MCF-10A
Experimental: as §1

[1] = target: T1, p53 ubiquitination (GST-tagged HDM2) (Homo sapiens, UniProt Q00987); assay: In vitro p53 ubiquitination assay; assay type: biochemical; conditions: GST-tagged HDM2, p53, ubiquitin, E1 and E2 (UbcH5B); read-out: IC50 (Mean ± SEM) In Vitro p53 Ubiquitination
T1 construct: GS4b-MDM2 RING beads were prepared as above and were used in place of the full-length MDM2; made in house; host or cells: Escherichia coli BL21
Experimental: Different prepared derivatives were evaluated for their inhibitory potential against p53 ubiquitination. The method is based on incubating different compounds with GST-tagged HDM2, immobilized on glutathione-Sepharose, p53, ubiquitin, E1 and E2 (UbcH5B) ligases. The buffer contained ATP as detailed by Gomha and Abdelaziz. The reaction products were then resolved by SDSPAGE and p53 ubiquitination and were quantified by Western blotting using an anti-p53 antibody.
Briefly, rGSH-S-transferase-tagged MDM2 (GST-MDM2) was expressed in Escherichia coli BL21 cells using 1 mM isopropyl-thio-b-D-galactoside for 3 h. The enzyme was then purified on glutathione-sepharose beads (Amersham). Beads were washed with Tris (pH 7.5). The reaction contained fluorescent ubiquitin (5 µg; Invitrogen), 50 ng mammalian E1 (Enzo), 200 ng human rUbcH5B E2 (Enzo), 200 ng His-p53 (Enzo) and buffer [50 mM Tris pH 8,2 mM dithiothreitol, 5 mM MgCl2, 2 mM adenosine triphosphate (ATP)]. The MPD-compound or control mixture was dose-titrated onto GS4b-MDM2 beads. Incubation at 37 °C was followed by shaking (1200 rpm, 1 h). The reaction was terminated with 3× sodium dodecyl sulfate sample buffer. Finally, unbound fluorescent ubiquitin was drained and the total fluorescent ubiquitin signal was measured using a plate reader (Safire).
The procedure was performed similar to the aforementioned protocol except that 5 µg unlabeled ubiquitin (Enzo) was used. Following incubation, resolving of reaction products was performed using sodium dodecyl sulfate PGE. Analysis was done by western blotting using anti-p53 DO-1. For the MDM2 RING auto-ubiquitination assay, GS4b-MDM2 RING beads were prepared as above and were used in place of the full-length MDM2.

EGFR = EGFR (Homo sapiens, UniProt P00533); assay: EGFR kinase inhibition assay; assay type: biochemical; conditions: 8 μM ATP, poly(Glu,Tyr)4:1 substrate; read-out: IC50 (Mean ± SEM) EGFR
Experimental: (§2) The EGFR and VEGFR-2 kinase activities were assayed as previously described. The assay was performed in 96-well plates pre-coated with 20 μg mL^−1 poly (Glu, Tyr)4:1 (Sigma-Aldrich Chemie GmbH, Taufkirchen, Germany) as a substrate. In each well, 85 μL of an 8 μM ATP solution and 10 μL of the compound were added at varying concentrations. Experiments were repeated three times. Reactions started with 5 μL of different kinases and incubation for 1 h at 37 °C. Plates were 3X-washed with PBS/0.1% Tween 20. Accordingly, 100 μL of anti-phosphotyrosine (PY99; 1:500 dilutions) antibody was added, and plates were incubated for another hour at room temperature. Plates were then 3X-washed, and addition of goat anti-mouse IgG horseradish peroxidase (100 μL; 1:2000 dilution) diluted in T-PBS containing 5 mg mL^−1 BSA followed. Plates were further incubated at room temperature for another hour, and then 3X-washed. Finally, 100 μL (developing solution, 0.03% H2O2, 2 mg mL^−1 o-phenylenediamine/citrate buffer, 0.1 M, pH 5.5) was added and incubation continued until color development. The reaction was stopped by 100 μL of 2M H2SO4, and the absorption was measured at 492 nm using a multiwell spectrophotometer (VERSAmax™). The inhibition rate (%) was calculated using the equation:Inhibition rate (%) = [1 − (A492/A492Control)] × 100%(1)

VEGFR-2 = VEGFR-2 (Homo sapiens, UniProt P35968); assay: VEGFR-2 kinase inhibition assay; assay type: biochemical; conditions: 8 μM ATP, poly(Glu,Tyr)4:1 substrate; read-out: IC50 (Mean ± SEM) VEGFR-2
Experimental: as §2

p53 ubiquitination = assay: In vivo ubiquitination of p53 (transfected cells); assay type: cell-based; conditions: cells transfected with p53, MDM2, HIS-ubiquitin; exposed 6 h; read-out: IC50 (Mean ± SEM) In Vivo p53 Ubiquitination
Experimental: In vivo ubiquitination of p53 was assayed according to [38] Cells were grown for 24 h (50% confluency) before transfection of 1 µg p53, 4 µg MDM2 and 1 µg HIS-ubiquitin with Gene Juice reagent. Grown for another 20 h, cells were exposed to prepared derivatives or controls for 6 h and MG132 for 4 h, then washed and collected in PBS, where 5% of the solution was kept as an input. The remaining pelleted cells (95% after centrifugation) were lysed in 700 µL of ubiquitin buffer A (6 M guanidinium HCl, 300 mM NaCl, 50 mM phosphate pH 8.0, 100 µg/mL N-ethylmaleimide), and sonicated for 5 min at 20% amplitude. Lysates were incubated overnight with Invitrogen Dynabeads His-Tag matrix and washed once with ubiquitin buffers A, B, C and phosphate buffered saline (ubiquitin buffer B: Mix ubiquitin buffer A and ubiquitin buffer C 1:1; ubiquitin buffer C: 300 mM NaCl, 50 mM phosphate pH 8.0, 100 µg/mL N-ethylmaleimide). The washed lysates were resolved by 8% sodium dodecyl sulfate–polyacrylamide gel electrophoresis, followed by immunoblotting with a p53 (DO-1) antibody.

Sequence of VEGFR-2 (P35968 20-1356): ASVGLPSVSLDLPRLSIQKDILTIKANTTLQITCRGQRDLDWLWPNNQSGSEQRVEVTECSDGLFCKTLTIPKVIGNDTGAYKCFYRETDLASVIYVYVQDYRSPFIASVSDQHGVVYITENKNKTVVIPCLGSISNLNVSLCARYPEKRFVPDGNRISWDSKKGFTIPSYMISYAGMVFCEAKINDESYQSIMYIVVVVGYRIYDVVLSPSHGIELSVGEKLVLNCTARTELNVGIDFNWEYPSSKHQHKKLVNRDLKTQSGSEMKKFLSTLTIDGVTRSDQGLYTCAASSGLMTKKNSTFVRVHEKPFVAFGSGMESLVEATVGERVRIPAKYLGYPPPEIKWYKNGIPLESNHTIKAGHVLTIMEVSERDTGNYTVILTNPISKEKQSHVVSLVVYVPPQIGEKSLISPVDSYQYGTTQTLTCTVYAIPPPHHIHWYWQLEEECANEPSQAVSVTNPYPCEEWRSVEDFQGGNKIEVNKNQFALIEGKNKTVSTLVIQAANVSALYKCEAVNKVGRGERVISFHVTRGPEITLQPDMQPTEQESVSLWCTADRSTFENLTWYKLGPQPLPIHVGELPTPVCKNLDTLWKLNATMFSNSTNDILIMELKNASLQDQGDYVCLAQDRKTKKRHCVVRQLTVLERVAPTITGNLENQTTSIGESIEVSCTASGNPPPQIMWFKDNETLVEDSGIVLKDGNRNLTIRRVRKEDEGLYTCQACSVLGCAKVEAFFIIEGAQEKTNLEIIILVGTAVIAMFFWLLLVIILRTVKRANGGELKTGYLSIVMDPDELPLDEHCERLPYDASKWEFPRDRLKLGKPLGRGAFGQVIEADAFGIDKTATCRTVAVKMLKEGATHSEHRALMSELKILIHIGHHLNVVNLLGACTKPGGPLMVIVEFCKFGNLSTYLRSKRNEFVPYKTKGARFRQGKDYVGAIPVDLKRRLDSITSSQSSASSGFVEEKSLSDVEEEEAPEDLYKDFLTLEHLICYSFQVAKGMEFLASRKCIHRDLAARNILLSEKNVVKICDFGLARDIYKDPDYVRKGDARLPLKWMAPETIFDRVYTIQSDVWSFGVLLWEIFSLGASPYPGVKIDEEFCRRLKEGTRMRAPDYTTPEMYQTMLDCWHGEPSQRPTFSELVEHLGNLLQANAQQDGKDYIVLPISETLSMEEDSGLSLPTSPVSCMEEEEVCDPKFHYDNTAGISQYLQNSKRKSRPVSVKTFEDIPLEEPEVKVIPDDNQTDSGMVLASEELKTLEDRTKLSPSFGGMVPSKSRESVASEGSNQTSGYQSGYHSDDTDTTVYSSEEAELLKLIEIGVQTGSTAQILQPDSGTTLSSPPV
T1 sequence (Q00987 whole entry): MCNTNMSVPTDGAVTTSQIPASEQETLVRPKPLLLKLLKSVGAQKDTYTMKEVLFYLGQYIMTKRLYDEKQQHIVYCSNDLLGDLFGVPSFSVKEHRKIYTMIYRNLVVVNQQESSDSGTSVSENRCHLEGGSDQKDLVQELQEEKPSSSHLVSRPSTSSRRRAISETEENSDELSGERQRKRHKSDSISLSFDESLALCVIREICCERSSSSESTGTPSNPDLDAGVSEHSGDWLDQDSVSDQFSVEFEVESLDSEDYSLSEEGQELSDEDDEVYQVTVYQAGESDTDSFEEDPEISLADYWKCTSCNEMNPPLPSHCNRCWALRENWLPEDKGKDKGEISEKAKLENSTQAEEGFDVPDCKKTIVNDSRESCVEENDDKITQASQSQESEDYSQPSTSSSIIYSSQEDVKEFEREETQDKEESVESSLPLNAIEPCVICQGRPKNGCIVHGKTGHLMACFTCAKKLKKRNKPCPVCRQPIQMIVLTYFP
Sequence of EGFR (P00533 25-1210): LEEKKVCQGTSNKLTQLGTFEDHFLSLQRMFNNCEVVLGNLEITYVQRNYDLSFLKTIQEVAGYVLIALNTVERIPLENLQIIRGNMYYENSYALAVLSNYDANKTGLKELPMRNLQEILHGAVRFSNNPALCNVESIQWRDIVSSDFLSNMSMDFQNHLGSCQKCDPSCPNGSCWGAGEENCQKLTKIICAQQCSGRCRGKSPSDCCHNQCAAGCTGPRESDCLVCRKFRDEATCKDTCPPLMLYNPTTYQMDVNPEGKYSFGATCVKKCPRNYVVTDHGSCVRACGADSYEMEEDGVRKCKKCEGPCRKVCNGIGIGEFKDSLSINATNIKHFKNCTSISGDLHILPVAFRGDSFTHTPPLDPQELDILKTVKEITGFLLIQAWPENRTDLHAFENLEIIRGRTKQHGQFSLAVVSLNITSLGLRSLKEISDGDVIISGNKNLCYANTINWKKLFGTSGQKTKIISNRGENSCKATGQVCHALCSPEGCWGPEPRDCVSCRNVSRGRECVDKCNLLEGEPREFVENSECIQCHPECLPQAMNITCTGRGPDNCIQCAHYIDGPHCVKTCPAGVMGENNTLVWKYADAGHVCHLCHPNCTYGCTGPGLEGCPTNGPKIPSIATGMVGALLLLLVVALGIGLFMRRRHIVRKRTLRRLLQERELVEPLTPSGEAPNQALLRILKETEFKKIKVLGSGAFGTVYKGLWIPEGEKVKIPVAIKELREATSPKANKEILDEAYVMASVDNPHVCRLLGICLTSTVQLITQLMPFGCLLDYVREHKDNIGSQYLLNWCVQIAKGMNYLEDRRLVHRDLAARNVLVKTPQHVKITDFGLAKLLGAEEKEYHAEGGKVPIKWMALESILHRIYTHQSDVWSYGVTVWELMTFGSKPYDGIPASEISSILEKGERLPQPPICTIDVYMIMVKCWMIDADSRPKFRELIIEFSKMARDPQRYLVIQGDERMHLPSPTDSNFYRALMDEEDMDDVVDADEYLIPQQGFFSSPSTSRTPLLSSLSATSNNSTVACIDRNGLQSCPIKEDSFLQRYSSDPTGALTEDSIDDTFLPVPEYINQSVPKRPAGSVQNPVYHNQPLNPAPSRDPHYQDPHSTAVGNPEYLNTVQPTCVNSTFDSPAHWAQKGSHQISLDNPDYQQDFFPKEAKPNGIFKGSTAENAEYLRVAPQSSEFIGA

Compound | IC50 (MCF-7 cells) | IC50 (MCF-10A cells) | IC50 (MCF-7 cells; Homo sapiens, MCF7) | IC50 [1] | IC50 (EGFR) | IC50 (VEGFR-2) | IC50 (MCF-10A cells; Homo sapiens) | melting point | IC50 (p53 ubiquitination)
N.N.[Cl][Pt][Cl] [Cisplatin, reference compound] | 13.34 ± 0.11 µM | 9.55 ± 0.54 µM |  |  |  |  |  |  | 
CC12CCC3c4ccc(O)cc4CCC3C1CC1=C2NC(=O)NC1c1ccccc1Cl (stereo not shown) [Compound 3a, 2′-Oxo-6′-(2-chlorophenyl)-estra-1(10),2,4,16(17)-tetraien-[17,16-d]pyrimidino-3-ol] |  |  | 35.7 ± 0.4 µM | 47.6 ± 0.6 µM | 0.127 ± 0.0037 µM | 0.047 ± 0.003 µM | 401 ± 11.6 µM | 266 to 268 °C | 0.6 ± 0.0086 µM
CC12CCC3c4ccc(O)cc4CCC3C1CC1=C2NC(=O)NC1c1ccc(Cl)cc1 (stereo not shown) [Compound 3b, Oxo-6′-(4-chlorophenyl)-estra-1(10),2,4,16(17)-tetraien-[17,16-d]pyrimidino-3-ols] |  |  | 38.6 ± 0.87 µM | 53.6 ± 0.78 µM | 0.155 ± 0.0051 µM | 0.048 ± 0.0014 µM | 422 ± 13.8 µM | 308 to 310 °C | 0.63 ± 0.0095 µM
CC12CCC3c4ccc(O)cc4CCC3C1CC1=C2NC(=S)NC1c1ccccc1Cl (stereo not shown) [Compound 4a, 2′-Thione-6′-(2-chlorophenyl)-estra-1(10),2,4,16(17)-tetraien-[17,16-d]pyrimidine-3-ol] |  |  | 28.64 ± 0.28 µM | 36.6 ± 0.58 µM | 0.095 ± 0.0028 µM | 0.037 ± 0.0026 µM | 302 ± 8.86 µM | 290 to 292 °C | 0.45 ± 0.0085 µM
CC12CCC3c4ccc(O)cc4CCC3C1CC1=C2NC(=S)NC1c1ccc(Cl)cc1 (stereo not shown) [Compound 4b, 2’-Thione-6’-(4-chlorophenyl)-estra-1(10),2,4,16(17)-tetraien-[17,16-d]-pyrimidine-3-ol] |  |  | 31.8 ± 0.39 µM | 45.8 ± 0.49 µM | 0.098 ± 0.0009 µM | 0.043 ± 0.0018 µM | 311 ± 9.59 µM | 333 to 335 °C | 0.57 ± 0.0097 µM
CC12CCC3c4ccc(O)cc4CCC3C1CC1=C2NC(=N)NC1c1ccc(Cl)cc1 (stereo not shown) [Compound 5b, 2′-Imino-6′-(4-chlorophenyl)-estra-1(10),2,4,16(17)-tetraien-[17,16-d]pyrimidino-3-ol] |  |  | 22.5 ± 0.24 µM | 27.6 ± 0.34 µM | 0.088 ± 0.0013 µM | 0.029 ± 0.0003 µM | 235 ± 7.76 µM | 326 to 328 °C | 0.31 ± 0.0053 µM
CC12CCC3c4ccc(O)cc4CCC3C1CC1=C2NC(=NC#N)NC1c1ccccc1Cl (stereo not shown) [Compound 6a, 2′-Cyanoimino-6′-(2-chlorophenyl)-estra-1(10),2,4,16(17)-tetraien-[17,16-d]pyrimidino-3-ol] |  |  | 24.57 ± 0.16 µM | 28.47 ± 0.25 µM | 0.09 ± 0.0006 µM | 0.031 ± 0.0041 µM | 244 ± 7.78 µM | 223 °C | 0.32 ± 0.0063 µM
CC12CCC3c4ccc(O)cc4CCC3C1CC1=C2NC(=NC#N)NC1c1ccc(Cl)cc1 (stereo not shown) [Compound 6b, 2′-Cyanoimino-6′-(4-chlorophenyl)-estra-1(10),2,4,16(17)-tetraien-[17,16-d]-pyrimidino-3-ol] |  |  | 26.46 ± 0.17 µM | 29.5 ± 0.36 µM | 0.091 ± 0.0025 µM | 0.033 ± 0.001 µM | 277 ± 8.23 µM | 282 to 284 °C | 0.42 ± 0.0074 µM
CC12CCC3c4ccc(O)cc4CCC3C1CC1C2=NN(C(N)=O)C1c1ccccc1Cl (stereo not shown) [Compound 7a, 1-Carbamoyl-1′H-(2’H)-5′-(2-chlorophenyl)-estra-1(10),2,4-trien-[17,16-c]pyrazoline-3-ol] |  |  | 41.1 ± 0.84 µM | 66.7 ± 0.86 µM | 0.188 ± 0.0016 µM | 0.055 ± 0.0013 µM | 466 ± 17.3 µM | 298 to 300 °C | 0.86 ± 0.0068 µM
CC12CCC3c4ccc(O)cc4CCC3C1CC1C2=NN(C(N)=O)C1c1ccc(Cl)cc1 (stereo not shown) [Compound 7b, 1-Carbamoyl-1’H-(2’H)-5’-(4-chlorophenyl)-estra-1(10),2,4-trien-[17,16-c]pyrazoline-3-ol] |  |  | 46.2 ± 0.93 µM | 77.6 ± 0.97 µM | 0.227 ± 0.0004 µM | 0.057 ± 0.0005 µM | 512 ± 16.6 µM | 248 to 250 °C | 0.89 ± 0.0099 µM
CC12CCC3c4ccc(O)cc4CCC3C1CC1C2=NN(C(N)=S)C1c1ccccc1Cl (stereo not shown) [Compound 8a, 1-Thiocarbamoyl-1′H-(2′H)-5′-(2-chlorophenyl)-estra-1(10),2,4-trien-[17,16-c]pyrazoline-3-ol] |  |  | 39.5 ± 0.75 µM | 55.4 ± 0.69 µM | 0.166 ± 0.0028 µM | 0.051 ± 0.0017 µM | 435 ± 14.6 µM | 294 to 296 °C | 0.74 ± 0.0087 µM
Oc1cc(O)c2cc(O)c(-c3cc(O)c(O)c(O)c3)[o+]c2c1 [Delphinidin, reference compound] |  |  |  |  | 6.27 ± 0.00076 µM | 5.09 ± 0.0012 µM |  |  | 
Milaplatin [reference compound] | 18.43 ± 0.13 µM | 18.3 ± 0.34 µM |  |  |  |  |  |  | 
